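Results reflect a 48-hour exposure of cells in 96-well plates to compound at five concentrations. TGI is the concentration that stops growth completely.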
system: T-47D breast; assay: DTP human tumour cell line panel, 48 h

Row | SMILES | TGI
1 | CCOC(=O)C(N)CSC(=O)NC (stereo not given) | 773 µM
2 | CC(=O)N(C(=O)CC(=O)N/N=C\c1ccc(Br)c(N(CCC#N)CCC#N)c1)c1ccc(Cl)cc1 | > 100 µM
3 | CCOC(=O)c1csc(NC(=O)C(C)N2CCCCC2)n1 (stereo not given) | > 100 µM
4 | O=C1c2cc3c(cc2CC12Cc1cc4c(cc1C2=O)CCC4)CCCC3 (stereo not given) | > 100 µM
5 | CC1(C)OCC2OC3(c4nc(C#N)c(N)o4)OC(C)(C)OC3C2O1 (stereo not given) | > 100 µM
6 | Cc1cccc2c1Oc1cc(Cl)ccc1C2NC(=O)CCN1CCOCC1 (stereo not given) | > 100 µM
7 | COC(=O)C1=C(C)NC(C)=C(C(=O)OC)C1c1ccc(/[N+]([O-])=C/c2ccccc2)cc1 | 40.6 µM
8 | CCN(CC)CCn1nc(N)c2nc3cc(Cl)ccc3nc21 | > 100 µM
9 | COc1ccc(CCNC2=CC(=O)c3ncccc3C2=O)cc1OC | 24.7 µM
10 | COc1ccc2c(c1)CCc1c-2[nH]c2ccc(OC)cc12 | > 100 µM
11 | CCN(CC)/C(Cl)=C(Cl)\C(=C1\Nc2ccc(OC)cc21)[N+](=O)[O-] | > 100 µM
12 | O=C(NCCCNC(=O)c1ccc2c(O)c(O)ccc2c1)c1ccc2c(O)c(O)ccc2c1 | > 100 µM
13 | COc1cc(/C=C2\C[C@H]3[C@@H]4CC=C5C[C@@H](O)CC[C@]5(C)[C@H]4CC[C@]3(C)C2=O)cc(OC)c1OC | 64.2 µM
14 | O=C1NC(=O)C(c2c[nH]c3cc(Br)ccc23)=C1c1cn(C(c2ccccc2)(c2ccccc2)c2ccccc2)cn1 | 93 µM
15 | Cn1ccc(C(=O)NCCOCCNC(=O)c2ccn(C)c(=O)c2O)c(O)c1=O | > 100 µM
16 | CSC1=C(SC)SC(=C2SC3=C(SC(=C4SCCS4)S3)S2)S1 | > 100 µM
17 | COn1cc(C=O)c2ccccc21 | > 100 µM
18 | CCOC(=O)C1=C(Nc2cccc(OC)c2)OCC1=O | > 100 µM
19 | C#CCn1ncc2c(SCc3ccccc3)ncnc21 | 27.1 µM
20 | CCC1OC2C(CC=C(C)C)=C3OC(C)(O)C(C)(CC)C(OC(=O)c4ccccc4)C3=C3OC(=O)C=C1C32 (stereo not given) | > 100 µM
21 | CCN(CC)c1ccc2cc(-c3nnc(-c4ccccc4)o3)c(=O)oc2c1 | > 71.4 µM
22 | CC1=CC(C2/C(=N/O)C=C(C)CC2(C)C)C(O)C(C)(C)C1 (stereo not given) | 28.1 µM
23 | O=C(CC(c1ccccc1)N1CCCCC1)c1ccccc1 (stereo not given) | 37.6 µM
24 | O=C(O)c1nc(-c2ccccn2)c(-c2ccccn2)nc1C(=O)O | 24.1 µM

system: U251 CNS; assay: DTP human tumour cell line panel, 48 h

Row | SMILES | TGI
25 | N#CSc1nc[nH]c1C(N)=O | > 100 µM
26 | CN(C)C(=O)NCCN1CCCCCc2ccccc21 | > 100 µM
27 | CC1(C#N)CC(C)(C)C(/C=C2/CC(C)(C)C(/C=C3/OC(=N)CC3(C)C)=N2)=N1 (stereo not given) | > 100 µM
28 | Cc1cccc(/C=N/NC(=S)NCCc2ccccn2)n1 | 92.1 µM
29 | O=C(C(=O)N1CCc2ccccc21)c1c[nH]c2ccccc12 | > 10 µM
30 | C=CCNC1=C2C[C@@H](C)C[C@@H](OC)[C@@H](OC(=O)CCCN)[C@H](C)/C=C(\C)[C@@H](OC(N)=O)[C@H](OC)/C=C\C=C(/C)C(=O)NC(=CC1=O)C2=O | > 50.4 µM
31 | C[C@]12CCC(=O)C=C1CC[C@@H]1C2CC[C@]2(C)c3nn(-c4ccc(F)cc4)nc3CC12 (stereo not given in full) | > 100 µM
32 | CCOC(=O)C(N)CSC(=O)NC (stereo not given) | 347 µM
33 | CC(=O)N(C(=O)CC(=O)N/N=C\c1ccc(Br)c(N(CCC#N)CCC#N)c1)c1ccc(Cl)cc1 | > 100 µM
34 | CCOC(=O)c1csc(NC(=O)C(C)N2CCCCC2)n1 (stereo not given) | > 100 µM
35 | O=C1c2cc3c(cc2CC12Cc1cc4c(cc1C2=O)CCC4)CCCC3 (stereo not given) | > 100 µM
36 | CC1(C)OCC2OC3(c4nc(C#N)c(N)o4)OC(C)(C)OC3C2O1 (stereo not given) | > 100 µM
37 | Cc1cccc2c1Oc1cc(Cl)ccc1C2NC(=O)CCN1CCOCC1 (stereo not given) | > 100 µM
38 | COC(=O)C1=C(C)NC(C)=C(C(=O)OC)C1c1ccc(/[N+]([O-])=C/c2ccccc2)cc1 | > 100 µM
39 | CCN(CC)CCn1nc(N)c2nc3cc(Cl)ccc3nc21 | > 100 µM
40 | COc1ccc(CCNC2=CC(=O)c3ncccc3C2=O)cc1OC | 14 µM

Row | SMILES | TGI
41 | COc1ccc2c(c1)CCc1c-2[nH]c2ccc(OC)cc12 | > 100 µM
42 | CCN(CC)/C(Cl)=C(Cl)\C(=C1\Nc2ccc(OC)cc21)[N+](=O)[O-] | > 100 µM
43 | O=C(NCCCNC(=O)c1ccc2c(O)c(O)ccc2c1)c1ccc2c(O)c(O)ccc2c1 | 64.4 µM
44 | COc1cc(/C=C2\C[C@H]3[C@@H]4CC=C5C[C@@H](O)CC[C@]5(C)[C@H]4CC[C@]3(C)C2=O)cc(OC)c1OC | > 100 µM
45 | O=C1NC(=O)C(c2c[nH]c3cc(Br)ccc23)=C1c1cn(C(c2ccccc2)(c2ccccc2)c2ccccc2)cn1 | 24.7 µM
46 | Cn1ccc(C(=O)NCCOCCNC(=O)c2ccn(C)c(=O)c2O)c(O)c1=O | > 100 µM
47 | CSC1=C(SC)SC(=C2SC3=C(SC(=C4SCCS4)S3)S2)S1 | > 100 µM
48 | COn1cc(C=O)c2ccccc21 | > 100 µM
49 | CCOC(=O)C1=C(Nc2cccc(OC)c2)OCC1=O | > 100 µM
50 | C#CCn1ncc2c(SCc3ccccc3)ncnc21 | > 100 µM
51 | CCC1OC2C(CC=C(C)C)=C3OC(C)(O)C(C)(CC)C(OC(=O)c4ccccc4)C3=C3OC(=O)C=C1C32 (stereo not given) | > 100 µM
52 | CCN(CC)c1ccc2cc(-c3nnc(-c4ccccc4)o3)c(=O)oc2c1 | > 100 µM
53 | CC1=CC(C2/C(=N/O)C=C(C)CC2(C)C)C(O)C(C)(C)C1 (stereo not given) | 29.6 µM
54 | O=C(CC(c1ccccc1)N1CCCCC1)c1ccccc1 (stereo not given) | 21.9 µM
55 | O=C(O)c1nc(-c2ccccn2)c(-c2ccccn2)nc1C(=O)O | 13.3 µM

system: UACC-257 melanoma; assay: DTP human tumour cell line panel, 48 h

Row | SMILES | TGI
56 | N#CSc1nc[nH]c1C(N)=O | > 100 µM
57 | CN(C)C(=O)NCCN1CCCCCc2ccccc21 | > 100 µM
58 | CC1(C#N)CC(C)(C)C(/C=C2/CC(C)(C)C(/C=C3/OC(=N)CC3(C)C)=N2)=N1 (stereo not given) | 48.7 µM
59 | Cc1cccc(/C=N/NC(=S)NCCc2ccccn2)n1 | > 100 µM
60 | O=C(C(=O)N1CCc2ccccc21)c1c[nH]c2ccccc12 | > 10 µM
61 | C=CCNC1=C2C[C@@H](C)C[C@@H](OC)[C@@H](OC(=O)CCCN)[C@H](C)/C=C(\C)[C@@H](OC(N)=O)[C@H](OC)/C=C\C=C(/C)C(=O)NC(=CC1=O)C2=O | 31.9 µM
62 | C[C@]12CCC(=O)C=C1CC[C@@H]1C2CC[C@]2(C)c3nn(-c4ccc(F)cc4)nc3CC12 (stereo not given in full) | > 100 µM
63 | CCOC(=O)C(N)CSC(=O)NC (stereo not given) | 535 µM
64 | CCOC(=O)c1csc(NC(=O)C(C)N2CCCCC2)n1 (stereo not given) | > 100 µM
65 | O=C1c2cc3c(cc2CC12Cc1cc4c(cc1C2=O)CCC4)CCCC3 (stereo not given) | > 100 µM
66 | CC1(C)OCC2OC3(c4nc(C#N)c(N)o4)OC(C)(C)OC3C2O1 (stereo not given) | > 100 µM
67 | Cc1cccc2c1Oc1cc(Cl)ccc1C2NC(=O)CCN1CCOCC1 (stereo not given) | > 100 µM
68 | COC(=O)C1=C(C)NC(C)=C(C(=O)OC)C1c1ccc(/[N+]([O-])=C/c2ccccc2)cc1 | > 100 µM
69 | CCN(CC)CCn1nc(N)c2nc3cc(Cl)ccc3nc21 | > 100 µM
70 | COc1ccc(CCNC2=CC(=O)c3ncccc3C2=O)cc1OC | 3.19 µM
71 | COc1ccc2c(c1)CCc1c-2[nH]c2ccc(OC)cc12 | > 100 µM
72 | CCN(CC)/C(Cl)=C(Cl)\C(=C1\Nc2ccc(OC)cc21)[N+](=O)[O-] | > 100 µM
73 | O=C(NCCCNC(=O)c1ccc2c(O)c(O)ccc2c1)c1ccc2c(O)c(O)ccc2c1 | 53 µM
74 | COc1cc(/C=C2\C[C@H]3[C@@H]4CC=C5C[C@@H](O)CC[C@]5(C)[C@H]4CC[C@]3(C)C2=O)cc(OC)c1OC | > 100 µM
75 | O=C1NC(=O)C(c2c[nH]c3cc(Br)ccc23)=C1c1cn(C(c2ccccc2)(c2ccccc2)c2ccccc2)cn1 | 51.2 µM
76 | Cn1ccc(C(=O)NCCOCCNC(=O)c2ccn(C)c(=O)c2O)c(O)c1=O | > 100 µM
77 | CSC1=C(SC)SC(=C2SC3=C(SC(=C4SCCS4)S3)S2)S1 | > 100 µM
78 | COn1cc(C=O)c2ccccc21 | > 100 µM
79 | CCOC(=O)C1=C(Nc2cccc(OC)c2)OCC1=O | > 100 µM
80 | C#CCn1ncc2c(SCc3ccccc3)ncnc21 | > 100 µM
81 | CCC1OC2C(CC=C(C)C)=C3OC(C)(O)C(C)(CC)C(OC(=O)c4ccccc4)C3=C3OC(=O)C=C1C32 (stereo not given) | > 100 µM
82 | CCN(CC)c1ccc2cc(-c3nnc(-c4ccccc4)o3)c(=O)oc2c1 | > 100 µM
83 | CC1=CC(C2/C(=N/O)C=C(C)CC2(C)C)C(O)C(C)(C)C1 (stereo not given) | 30.1 µM
84 | O=C(CC(c1ccccc1)N1CCCCC1)c1ccccc1 (stereo not given) | 27.8 µM
85 | O=C(O)c1nc(-c2ccccn2)c(-c2ccccn2)nc1C(=O)O | 16.4 µM

system: UO-31 renal; assay: DTP human tumour cell line panel, 48 h

Row | SMILES | TGI
86 | N#CSc1nc[nH]c1C(N)=O | > 100 µM
87 | CN(C)C(=O)NCCN1CCCCCc2ccccc21 | > 100 µM
88 | Cc1cccc(/C=N/NC(=S)NCCc2ccccn2)n1 | 64.2 µM
89 | O=C(C(=O)N1CCc2ccccc21)c1c[nH]c2ccccc12 | > 10 µM
90 | C=CCNC1=C2C[C@@H](C)C[C@@H](OC)[C@@H](OC(=O)CCCN)[C@H](C)/C=C(\C)[C@@H](OC(N)=O)[C@H](OC)/C=C\C=C(/C)C(=O)NC(=CC1=O)C2=O | 34.2 µM
91 | C[C@]12CCC(=O)C=C1CC[C@@H]1C2CC[C@]2(C)c3nn(-c4ccc(F)cc4)nc3CC12 (stereo not given in full) | > 100 µM
92 | CCOC(=O)C(N)CSC(=O)NC (stereo not given) | 602 µM
93 | CC(=O)N(C(=O)CC(=O)N/N=C\c1ccc(Br)c(N(CCC#N)CCC#N)c1)c1ccc(Cl)cc1 | > 100 µM
94 | CCOC(=O)c1csc(NC(=O)C(C)N2CCCCC2)n1 (stereo not given) | > 100 µM
95 | O=C1c2cc3c(cc2CC12Cc1cc4c(cc1C2=O)CCC4)CCCC3 (stereo not given) | > 100 µM
96 | CC1(C)OCC2OC3(c4nc(C#N)c(N)o4)OC(C)(C)OC3C2O1 (stereo not given) | > 100 µM
97 | Cc1cccc2c1Oc1cc(Cl)ccc1C2NC(=O)CCN1CCOCC1 (stereo not given) | > 100 µM
98 | COC(=O)C1=C(C)NC(C)=C(C(=O)OC)C1c1ccc(/[N+]([O-])=C/c2ccccc2)cc1 | > 100 µM
99 | CCN(CC)CCn1nc(N)c2nc3cc(Cl)ccc3nc21 | > 100 µM
100 | COc1ccc(CCNC2=CC(=O)c3ncccc3C2=O)cc1OC | 13.1 µM
101 | COc1ccc2c(c1)CCc1c-2[nH]c2ccc(OC)cc12 | > 100 µM
102 | CCN(CC)/C(Cl)=C(Cl)\C(=C1\Nc2ccc(OC)cc21)[N+](=O)[O-] | > 100 µM
103 | O=C(NCCCNC(=O)c1ccc2c(O)c(O)ccc2c1)c1ccc2c(O)c(O)ccc2c1 | 65.7 µM
104 | COc1cc(/C=C2\C[C@H]3[C@@H]4CC=C5C[C@@H](O)CC[C@]5(C)[C@H]4CC[C@]3(C)C2=O)cc(OC)c1OC | > 100 µM
105 | O=C1NC(=O)C(c2c[nH]c3cc(Br)ccc23)=C1c1cn(C(c2ccccc2)(c2ccccc2)c2ccccc2)cn1 | 31.9 µM
106 | Cn1ccc(C(=O)NCCOCCNC(=O)c2ccn(C)c(=O)c2O)c(O)c1=O | > 100 µM
107 | CSC1=C(SC)SC(=C2SC3=C(SC(=C4SCCS4)S3)S2)S1 | > 100 µM
108 | COn1cc(C=O)c2ccccc21 | > 100 µM
109 | CCOC(=O)C1=C(Nc2cccc(OC)c2)OCC1=O | > 100 µM
110 | C#CCn1ncc2c(SCc3ccccc3)ncnc21 | > 100 µM
111 | CCC1OC2C(CC=C(C)C)=C3OC(C)(O)C(C)(CC)C(OC(=O)c4ccccc4)C3=C3OC(=O)C=C1C32 (stereo not given) | > 100 µM
112 | CCN(CC)c1ccc2cc(-c3nnc(-c4ccccc4)o3)c(=O)oc2c1 | > 100 µM
113 | CC1=CC(C2/C(=N/O)C=C(C)CC2(C)C)C(O)C(C)(C)C1 (stereo not given) | 29 µM
114 | O=C(CC(c1ccccc1)N1CCCCC1)c1ccccc1 (stereo not given) | 36.8 µM
115 | O=C(O)c1nc(-c2ccccn2)c(-c2ccccn2)nc1C(=O)O | 8.15 µM

Reference: PubChem BioAssay (NCI)
